Here are results for 4 molecules from article PMC12736141, “New Quinazolin-4(3H)-one Derivatives as Potential Antitumoral Compounds: Synthesis, In Vitro Cytotoxicity Against the HepG2 Cell Line, and In Silico VEGFR-2 Targeting-Based Studies” (Molecules, 2025).

In data set [1] the test system is human foreskin fibroblasts (BJ). The data set can be described thus: MTT cytotoxicity assay on BJ cells. To be noted: 48 h; for cytotoxicity on BJ cell line (in words) / IC50: BJ cells; for IC50: Homo sapiens, MTT. It is filed as cell-based. The method, then: (§1) Compounds 5a–c were dissolved in dimethylsulfoxide (DMSO) at an initial concentration of 10 mM, which was diluted 10 times with the characteristic medium and placed on plates at final concentrations ranging from 12.5 to 150 μM. The cells were seeded on plates of 96 wells at a density of 1 × 10^4 cells per well and incubated for 48 h. The culture medium was removed, and then 100 µL MTT (3-(4,5-dimethylthiazol-2-yl)-2,5-diphenyltetrazolium bromide) was added for 1 h. After that, it was removed, and 150 µL of pure dimethylsulfoxide (DMSO) was added. The samples were read using an ELISA Reader (BioTek, Winooski, VT, USA) at 570 nm. […] All determinations were made in triplicate.
(§2) The half-maximal inhibitory concentration (IC50) values were calculated to evaluate the potency of compounds 5a–c by fitting the investigational data with a 4-parameter logistic curve to obtain the dose-effect curves. The experimental IC50 results are expressed as mean values ± standard deviation (SD) of the three biological replicates.
(§3) Two-way analysis of variance (ANOVA) with a post hoc Bonferroni test was used to statistically examine the relative cell viability (%), compared to the negative control (NC), which was 100%. Data were analyzed using the […] software (GraphPad Prism 8.0.2. Software, La Jolla, CA, USA). In terms of statistical analysis, the results were considered different at values of p < 0.05 or p < 0.001.
Background: Tetrazolium assays rely on reduction of a dye to a coloured formazan, in cell work by metabolically active cells.

The subject of data set [2] is human hepatocellular carcinoma (HepG2). The data set can be described thus: MTT cytotoxicity assay on HepG2 cells. In kind it is cell-based. To be noted: for IC50: Homo sapiens, HepG2 cells, MTT; for IC50 / Selectivity Index (SI): 48 h; for Selectivity Index (SI): SI = IC50 BJ/IC50 HepG2. The method, then: as §1, §2, §3
The selectivity index (SI) was used as a parameter to determine how many times more cytotoxic the investigated compounds were by exposing them to normal and cancer cells. It was calculated using the IC50 value ratio between the BJ cell line and the HepG2 cell line, both obtained from ATCC (Manassas, VA, USA). Results that are greater than 2 are considered suitable, as reported in the literature.

Data set [3] can be described thus: In vitro lipophilicity by RP-TLC. In kind it is physicochemical. To be noted: for PC2 / PC1: PCA score on RM values; for PC1: lower value = more lipophilic; for RM / Rf / mRM / RM0 / b / lipophilicity ranking (in words): RP-TLC; for mRM: arithmetic mean of RM values; for RM0: extrapolation of RM to 0% organic modifier; for b: slope of the line RM = f(c); for lipophilicity ranking (in words): within series 5a–c. The method, then: The chromatographic performance of compounds 5a–c was investigated by reverse-phase thin-layer chromatography (RP-TLC). Standardized Silica gel 60 RP-18 F254S chromatographic plates (20 × 10 cm, Merck, Darmstadt, Germany) were used as the stationary phase, and an i-propanol–water mixture, in volumetric proportions ranging from 40% to 60% (v/v) i-propanol, was used as the mobile phase. The variance between two successive elution mixtures was 5%.
Solutions containing 1 mg/mL of compounds 5a–c were prepared in dimethylsulfoxide (DMSO). A volume equal to 2 μL of each sample was manually applied using chromatographic capillary micropipettes, at a distance of 10 mm from the lower side of the plates and 10 mm from their lateral sides. The gap between two successive spots was 10 mm.
The development process was carried out at room temperature using a chromatographic chamber pre-saturated for 30 min with mobile-phase vapors. The migration distance of the mobile phase was 80 mm for all concentrations used, and it was determined manually by calculating the retention factor Rf; thus, Rf = migration distance of the compound/migration distance of the mobile phase. Rf values were calculated for each tested compound at all five concentrations of the mobile phase.
The spots were visualized under UV light at a wavelength of 254 nm.
Starting from the Rf values determined by RP-TLC, a series of lipophilicity parameters was calculated. Therefore, based on the Bate-Smith and Westall equation, the logarithmic RM values were obtained:RM = log [1/Rf−1](2)
Based on the linear relationship between the RM value and the concentration of the organic solvent in the mobile phase [c], using the linear regression equation and the Soczewinski–Wachtmeister model (where b = slope of the line and c = concentration of organic modifier), the values of another lipophilicity parameter, RM0, were determined by extrapolating the RM values to 0% organic modifier:RM = RM0 + b[c](3)
The arithmetic mean of the lipophilicity parameter RM values, corresponding to a series of concentrations of the organic modifier in the mobile phase, was determined. Therefore, the mRM lipophilicity parameter was obtained.
Applying principal component analysis (PCA, XL-STAT) to the lipophilicity parameter RM, new lipophilicity parameters represented by the principal components (PCs) were obtained.
Starting from the experimentally determined Rf values, the RM logarithmic values were calculated. Consequently, the presence of minor errors in determining the Rf values can generate errors in calculating the RM values. By analyzing the principal components, the errors in estimating the RM0 values are eliminated through extrapolation, thereby providing more precise results.

The nature of data set [4]: In vitro lipophilicity by RP-HPLC. To be noted: logarithm of the capacity factor. In kind it is physicochemical. The method, then: The chromatographic behavior of compounds 5a–c was also examined by high-performance liquid chromatography coupled with mass spectrometry (HPLC-MS). The analyses were conducted using an Agilent 1100 series HPLC system (binary pump, autosampler, thermostat, UV detector, Agilent Technologies, USA) coupled to a Bruker Ion Trap SL system (Bruker Daltonics GmbH). Chromatographic separation was completed using a Zorbax SB-C18 column (50 mm × 2.1 mm i.d., 3.5 μm, Agilent Technologies). The mobile phase consisted of a mixture of water with 0.1% (v/v) acetic acid and acetonitrile. The elution gradient started at 15% acetonitrile and increased to 95% within 5 min. The flow rate was 0.6 mL/min, and the thermostat was set at 45 °C. UV detection was performed at 242 nm. Based on the retention times obtained, the capacity factor k was calculated using formula […], where tR = retention time of the compound and t0 = retention time of the solvent:k = (tR − t0)/t0,(4)
The logarithm of the capacity factor (log k) was used to estimate the lipophilicity of the compounds [71]. The RP-HPLC method has multiple advantages, including low sample requirements, good accuracy of determinations, fast analysis, and high reproducibility.

Setting [5] is: Isopropanol–Water 40:60 (v:v %).
The mark [6] stands for this setting: Isopropanol–Water 45:55 (v:v %).
The mark [7] stands for this setting: Isopropanol–Water 50:50 (v:v %).
The mark [8] stands for this setting: Isopropanol–Water 55:45 (v:v %).
The mark [9] stands for this setting: Isopropanol–Water 60:40 (v:v %).

For `C=CCn1c(SCC(=O)c2ccc(O)c(C(N)=O)c2)nc2ccccc2c1=O` [5a, 5-(2-((3-allyl-4-oxo-3,4-dihydroquinazolin-2-yl)thio)acetyl)-2-hydroxybenzamide], in data set [1], the “cytotoxicity on BJ cell line (in words)” value is given as “less cytotoxic or non-cytotoxic” and the IC50 was greater than 100 µM. The molecule further came in with a half-inhibitory concentration (IC50) in data set [2] greater than 50 µM. For the same molecule, in data set [3], the PC2 is recorded as −0.09, the PC1 worked out at 0.64, the mRM is −0.16 and the RM0 is recorded as −0.03. In data set [3], this molecule displayed a b of 1.60. For the same molecule, in data set [3] (setting [5]), the RM came out at 0.12 and the Rf amounted to 0.43. In data set [3] (setting [6]), this molecule displayed an RM of 0.03 and a Rf of 0.48. Also, in data set [3] (setting [7]), the RM was −0.08 and the Rf was determined as 0.55. In data set [3] (setting [8]), the RM is recorded as −0.28 and the Rf is given as 0.66. In data set [3] (setting [9]), the RM was −0.60 and the Rf is 0.8. This molecule also displayed a log k in data set [4] of 0.93.
`NC(=O)c1cc(C(=O)CSc2nc3ccccc3c(=O)n2Cc2ccccc2)ccc1O` [5b, 5-(2-((3-benzyl-4-oxo-3,4-dihydroquinazolin-2-yl)thio)acetyl)-2-hydroxybenzamide]: in data set [1], the “cytotoxicity on BJ cell line (in words)” value is recorded as “moderate cytotoxicity” and the IC50 stood at 26.6 ± 1.07 µM. The “reduction of viability values” in data set [1] (BJ, concentrations higher than 50 and 100 µM) is recorded as “more than 35%”. Further, the “decrease of cell viability” value in data set [1] (BJ, concentrations over 25 µM) is given as “more than 50%”. Further, in data set [2], the “Selectivity Index (SI)” value is 1.06 and the IC50 stood at 24.87 ± 0.19 µM. For the same molecule, in data set [3], the PC2 is on record as 0.41, the PC1 is listed as −2.01, the mRM is on record as 0.02 and the RM0 is given as −0.03. In data set [3], the b is given as 1.95 and the “lipophilicity ranking (in words)” value is “The most lipophilic compound”. In data set [3] (setting [5]), this molecule registered an RM of 0.36 and a Rf of 0.30. In data set [3] (setting [6]), the RM came out at 0.23 and the Rf is 0.37. In data set [3] (setting [7]), this molecule yielded an RM of 0.06 and a Rf of 0.46. Moreover, in data set [3] (setting [8]), the RM is −0.14 and the Rf is given as 0.58. Besides, in data set [3] (setting [9]), the RM is −0.41 and the Rf was determined as 0.72. In addition, the log k in data set [4] is listed as 0.99.
As for `CCn1c(SCC(=O)c2ccc(O)c(C(N)=O)c2)nc2ccccc2c1=O` [5c, 5-(2-((3-ethyl-4-oxo-3,4-dihydroquinazolin-2-yl)thio)acetyl)-2-hydroxybenzamide], in data set [1], the “cytotoxicity on BJ cell line (in words)” value is given as “moderate cytotoxicity” and half-maximal inhibition (IC50) was put at 34.5 ± 1.09 µM. Also, the “relative cell viability result (in words)” value in data set [1] (BJ, over 37.5 µM) is recorded as “significantly unfavorable”. In data set [2], the “Selectivity Index (SI)” value was 1.35 and half-maximal inhibition (IC50) required 25.46 ± 0.2 µM. Moreover, the “reduction in cell viability (in words)” value in data set [2] (HepG2, 48 h, over 37.5 µM) is “important reduction in cell viability”. Besides, in data set [3], the PC2 is given as −0.31, the PC1 was found to be 1.37, the mRM is −0.21 and the RM0 is on record as −0.03. Moreover, in data set [3], the b was 1.46 and the “lipophilicity ranking (in words)” value is on record as “The least lipophilic compound”. In data set [3] (setting [5]), the RM is 0.05 and the Rf stood at 0.47. In data set [3] (setting [6]), this molecule displayed an RM of −0.01 and a Rf of 0.51. Besides, in data set [3] (setting [7]), the RM is reported as −0.14 and the Rf worked out at 0.58. Further, in data set [3] (setting [8]), the RM is −0.32 and the Rf is 0.68. In data set [3] (setting [9]), this molecule came in with an RM of −0.62 and a Rf of 0.81. Also, in data set [4], the log k is 0.91.
`CNC(=O)c1cc(Oc2ccc(NC(=O)Nc3ccc(Cl)c(C(F)(F)F)c3)cc2)ccn1` [Sorafenib, reference compound]: the concentration for half-maximal inhibition (IC50) stood at 5.11 ± 0.16 µM in data set [1] and 4.87 ± 0.19 µM in data set [2]. Also, the cell viability level entry in data set [2] (HepG2, 48 h, concentrations exceeding 5 µM) is “below 50%”.

As usually defined, the IC50 is the concentration that inhibits the measured activity by half. Lower therefore signals higher potency.
